# Experimental data as given in publication PMC8288134, “Synthesis, potential antitumor activity, cell cycle analysis, and multitarget mechanisms of novel hydrazones incorporating a 4-methylsulfonylbenzene scaffold: a molecular docking study” (Journal of Enzyme Inhibition and Medicinal Chemistry, 2021).
# Like-named read-outs stand apart in the source and are kept apart here.
# Experiments:
# Experiment in all cases: NCI antitumor screen (SRB)
# CCRF-CEM = assay type: cell-based; details: Homo sapiens; for inhibition at 10 µM: one dose 10 µM, read-out: Growth inhibition percentage (GI%)
# K-562 = assay type: cell-based; details: Homo sapiens
# NCI-H226 = assay type: cell-based; details: Homo sapiens; for inhibition at 10 µM: one dose 10 µM, read-out: Growth inhibition percentage (GI%)
# NCI-H460 = assay type: cell-based; details: Homo sapiens; for inhibition at 10 µM: one dose 10 µM, read-out: Growth inhibition percentage (GI%)
# HCT-116 = assay type: cell-based; details: Homo sapiens; for inhibition at 10 µM: read-out: Growth inhibition percentage (GI%)
# SNB-75 = assay type: cell-based; details: Homo sapiens; for inhibition at 10 µM: one dose 10 µM, read-out: Growth inhibition percentage (GI%)
# LOX IMVI = assay type: cell-based; details: Homo sapiens; for inhibition at 10 µM: one dose 10 µM, read-out: Growth inhibition percentage (GI%)
# UACC-62 = assay type: cell-based; details: Homo sapiens; for inhibition at 10 µM: one dose 10 µM, read-out: Growth inhibition percentage (GI%)
# OVCAR-4 = assay type: cell-based; details: Homo sapiens; for inhibition at 10 µM: one dose 10 µM, read-out: Growth inhibition percentage (GI%)
# OVCAR-5 = assay type: cell-based; details: Homo sapiens; for inhibition at 10 µM: one dose 10 µM, read-out: Growth inhibition percentage (GI%)
# ACHN = assay type: cell-based; details: Homo sapiens; for inhibition at 10 µM: one dose 10 µM, read-out: Growth inhibition percentage (GI%)
# CAKI-1 = assay type: cell-based; details: Homo sapiens; for inhibition at 10 µM: one dose 10 µM, read-out: Growth inhibition percentage (GI%)
# RXF 393 = assay type: cell-based; details: Homo sapiens; for inhibition at 10 µM: one dose 10 µM, read-out: Growth inhibition percentage (GI%)
# UO-31 = assay type: cell-based, human; details: for inhibition at 10 µM: read-out: Growth inhibition percentage (GI%)
# PC-3 = assay type: cell-based; details: Homo sapiens; for inhibition at 10 µM: one dose 10 µM, read-out: Growth inhibition percentage (GI%)
# MDA-MB-231/ATCC = assay type: cell-based; details: Homo sapiens; for inhibition at 10 µM: one dose 10 µM, read-out: Growth inhibition percentage (GI%)
# HS 578 T = assay type: cell-based; details: Homo sapiens; for inhibition at 10 µM: one dose 10 µM, read-out: Growth inhibition percentage (GI%)
# T-47D = assay type: cell-based; details: Homo sapiens, T47D; for inhibition at 10 µM: one dose 10 µM, read-out: Growth inhibition percentage (GI%)
# MDA-MB-468 = assay type: cell-based; details: Homo sapiens; for inhibition at 10 µM: one dose 10 µM, read-out: Growth inhibition percentage (GI%)
# [1] = K562, read-out: Growth inhibition percentage (GI%)
# [2] = Homo sapiens, UO-31, one dose 10 µM
# [3] = five concentrations 0.01-100 µM
structure (smiles),measurement,setting,value
"CS(=O)(=O)c1ccc(C(=O)NN=Cc2cccc3ccccc23)cc1 [Compound 6, 4-(Methylsulfonyl)-N'-(naphthalen-1-ylmethylene)benzohydrazide]",inhibition at 10 µM,CCRF-CEM,22.4%
same,inhibition at 10 µM,K-562; [1],72.2%
same,inhibition at 10 µM,NCI-H226,16.3%
same,inhibition at 10 µM,NCI-H460,33.2%
same,inhibition at 10 µM,HCT-116,38.2%
same,inhibition at 10 µM,SNB-75,10.3%
same,inhibition at 10 µM,LOX IMVI,27.6%
same,inhibition at 10 µM,UACC-62,38.4%
same,inhibition at 10 µM,OVCAR-4,< 10%
same,inhibition at 10 µM,OVCAR-5,< 10%
same,inhibition at 10 µM,ACHN,< 10%
same,inhibition at 10 µM,CAKI-1,32.8%
same,inhibition at 10 µM,RXF 393,< 10%
same,inhibition at 10 µM,UO-31; [2],21.5%
same,inhibition at 10 µM,PC-3,21.2%
same,inhibition at 10 µM,MDA-MB-231/ATCC,< 10%
same,inhibition at 10 µM,HS 578 T,14.9%
same,inhibition at 10 µM,T-47D,14.7%
same,inhibition at 10 µM,MDA-MB-468,25.8%
CCN(CC)c1ccc(/C=N/NC(=O)c2ccc(S(C)(=O)=O)cc2)c(O)c1 [Compound 20],GI50,CCRF-CEM; [3],78 nM
same,inhibition at 10 µM,CCRF-CEM,93.1%
same,GI50,"K-562; K562, K-562, five concentrations 0.01-100 µM",604 nM
same,inhibition at 10 µM,"K-562; K562, K-562, one dose 10 µM, read-out: Growth inhibition percentage (GI%)",87.6%
same,GI50,NCI-H226; [3],73 nM
same,inhibition at 10 µM,NCI-H226,77.4%
same,GI50,NCI-H460; [3],113 nM
same,inhibition at 10 µM,NCI-H460,96.7%
same,GI50,HCT-116,121 nM
same,inhibition at 10 µM,HCT-116,81.6%
same,GI50,SNB-75; [3],228 nM
same,inhibition at 10 µM,SNB-75,44.8%
same,GI50,LOX IMVI; [3],99.7 nM
same,inhibition at 10 µM,LOX IMVI,90.3%
same,GI50,UACC-62; [3],234 nM
same,inhibition at 10 µM,UACC-62,> 100%
same,GI50,OVCAR-4; [3],63 nM
same,inhibition at 10 µM,OVCAR-4,65.3%
same,GI50,OVCAR-5; [3],6480 nM
same,inhibition at 10 µM,OVCAR-5,67.5%
same,GI50,ACHN; [3],117 nM
same,inhibition at 10 µM,ACHN,82.9%
same,GI50,CAKI-1; [3],104 nM
same,inhibition at 10 µM,CAKI-1,79.6%
same,GI50,RXF 393; [3],271 nM
same,inhibition at 10 µM,RXF 393,71.5%
same,inhibition at 10 µM,"UO-31; Homo sapiens, UO-31, UO-31, one dose 10 µM",100%
same,GI50,"UO-31; Homo sapiens, UO-31, five concentrations 0.01-100 µM",139 nM
same,Growth inhibition percentage (GI%),"UO-31; UO-31, one dose 10 µM",>100%
same,GI50,PC-3; [3],319 nM
same,inhibition at 10 µM,PC-3,50.8%
same,GI50,MDA-MB-231/ATCC; [3],308 nM
same,inhibition at 10 µM,MDA-MB-231/ATCC,56.8%
same,GI50,HS 578 T; [3],11700 nM
same,inhibition at 10 µM,HS 578 T,32%
same,GI50,T-47D; [3],390 nM
same,inhibition at 10 µM,T-47D,70%
same,GI50,MDA-MB-468; [3],203 nM
same,inhibition at 10 µM,MDA-MB-468,98.8%
"Cc1ccc(C=NNC(=O)c2ccc(S(C)(=O)=O)cc2)cc1 [Compound 9, N'-(4-Methylbenzylidene)-4-(methylsulfonyl)benzohydrazide]",inhibition at 10 µM,CCRF-CEM,20.8%
same,inhibition at 10 µM,K-562; [1],44.1%
same,inhibition at 10 µM,NCI-H226,< 10%
same,inhibition at 10 µM,NCI-H460,< 10%
same,inhibition at 10 µM,HCT-116,13.9%
same,inhibition at 10 µM,SNB-75,< 10%
same,inhibition at 10 µM,LOX IMVI,< 10%
same,inhibition at 10 µM,UACC-62,19.1%
same,inhibition at 10 µM,OVCAR-4,< 10%
same,inhibition at 10 µM,OVCAR-5,< 10%
same,inhibition at 10 µM,ACHN,< 10%
same,inhibition at 10 µM,CAKI-1,25%
same,inhibition at 10 µM,RXF 393,< 10%
same,inhibition at 10 µM,UO-31; [2],12.3%
same,inhibition at 10 µM,PC-3,26.9%
same,inhibition at 10 µM,MDA-MB-231/ATCC,< 10%
same,inhibition at 10 µM,HS 578 T,< 10%
same,inhibition at 10 µM,T-47D,< 10%
same,inhibition at 10 µM,MDA-MB-468,21.5%
